# How the values were obtained:
# H1 = biological target: T1, H1 (Homo sapiens, UniProt P35367); test: PDSP primary binding H1; conditions: primary binding, 10,000 nM; last figure of the line = mean of the 4 before it; read-out: H1, PDSP raw data, mean
# T1 construct: purchased NIMH Psychoactive Drug Screening Program (PDSP)
# Method: (§1) To determine if any off-target receptor-binding effects are present, all the novel ligands were sent to the National Institute of Mental Health (NIMH), Psychoactive Drug Screening Program (PDSP). The ligands were screened over a panel of 47 receptors, ion channels, and transporters to determine any other possible interactions with […]. The hERG-binding was also determined. […] No binding of the test compounds to calcium channels was observed. […] It is necessary to screen the compounds for hERG-binding during the early process of drug discovery. The unintentional binding of many drugs to hERG can cause blockade of hERG K+ channels in the heart, which can cause many side effects including cardiac arrhythmias and sudden death. […] All of the α5 imidazodiazepines were tested for hERG-binding.
# (§2) The NIMH PDSP assay protocol book [https://kidbdev.med.unc.edu/databases/PDSP%20Protocols%20II%202013-03-28.pdf accessed on 23 April 2023]. describes the protocols for primary and secondary radio-ligand binding assays. These assays were carried out in a final volume of 125 µL per well in the appropriate binding buffer.
# (§3) The binding of a ligand to a receptor, ion channel, or transporter was determined in the […] of 10 µM of the appropriate reference compound. […] Plates were incubated in the dark for 90 min at rt, and the reactions were stopped by vacuum filtration onto 0.3% polyethyleneimine (PEI) soaked 96-well filter mats using a 96-well Filtermateharvester. This was followed by three washes with cold PBS buffer. Radioactivity was then counted on a Microbeta counter. Nonlinear regression was used to analyze the data with N = 6 replicates.
# Alpha7 = test: PDSP primary binding Alpha7; conditions: primary binding, 10,000 nM; last figure of the line = mean of the 4 before it
# Method: as §1, §2, §3
# Alpha1D = biological target: T2, Alpha1D (Homo sapiens, UniProt P25100); test: PDSP primary binding Alpha1D; conditions: 1.5 h; primary binding, 10,000 nM; last figure of the line = mean of the 4 before it; read-out: Alpha1D, PDSP raw data, mean
# T2 construct: purchased NIMH Psychoactive Drug Screening Program (PDSP)
# T2 sequence (P25100 1-572): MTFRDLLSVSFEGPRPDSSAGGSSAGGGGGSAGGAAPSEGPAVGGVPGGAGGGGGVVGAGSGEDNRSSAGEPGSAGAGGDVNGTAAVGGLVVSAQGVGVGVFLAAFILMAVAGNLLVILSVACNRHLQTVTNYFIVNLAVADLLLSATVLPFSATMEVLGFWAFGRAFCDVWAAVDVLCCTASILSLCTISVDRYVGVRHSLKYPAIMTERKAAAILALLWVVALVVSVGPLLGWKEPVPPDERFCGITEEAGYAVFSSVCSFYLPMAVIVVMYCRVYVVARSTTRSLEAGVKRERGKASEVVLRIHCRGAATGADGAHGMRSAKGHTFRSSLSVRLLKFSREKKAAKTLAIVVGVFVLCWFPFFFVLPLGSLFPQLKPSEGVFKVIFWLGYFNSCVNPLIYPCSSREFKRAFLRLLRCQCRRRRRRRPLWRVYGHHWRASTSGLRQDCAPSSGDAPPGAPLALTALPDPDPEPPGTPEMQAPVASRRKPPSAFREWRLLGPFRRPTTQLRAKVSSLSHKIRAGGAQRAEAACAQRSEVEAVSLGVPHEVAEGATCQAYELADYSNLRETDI
# Method: as §1, §2, §3
# Alpha2Beta2 = biological target: T3, Alpha2Beta2 (Rattus norvegicus, UniProt P12389+P12390); test: PDSP primary binding Alpha2Beta2; conditions: primary binding, 10,000 nM; last figure of the line = mean of the 4 before it; read-out: Alpha2Beta2, PDSP raw data, mean
# T3 construct: purchased NIMH Psychoactive Drug Screening Program (PDSP)
# T3 sequence (P12389 28-511): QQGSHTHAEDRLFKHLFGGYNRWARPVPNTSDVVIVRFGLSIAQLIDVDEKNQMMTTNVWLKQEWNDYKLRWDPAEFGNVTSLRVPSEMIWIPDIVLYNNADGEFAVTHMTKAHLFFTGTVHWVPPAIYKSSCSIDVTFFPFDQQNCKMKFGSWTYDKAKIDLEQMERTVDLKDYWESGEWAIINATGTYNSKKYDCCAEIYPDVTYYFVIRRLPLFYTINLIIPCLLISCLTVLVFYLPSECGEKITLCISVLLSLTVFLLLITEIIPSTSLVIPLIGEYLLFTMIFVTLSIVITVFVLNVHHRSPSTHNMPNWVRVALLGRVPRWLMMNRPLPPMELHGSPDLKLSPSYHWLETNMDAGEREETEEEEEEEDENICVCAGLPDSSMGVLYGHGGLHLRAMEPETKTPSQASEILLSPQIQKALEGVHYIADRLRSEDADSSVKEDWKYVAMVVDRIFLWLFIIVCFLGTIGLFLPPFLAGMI
# T3 sequence (P12390 25-500): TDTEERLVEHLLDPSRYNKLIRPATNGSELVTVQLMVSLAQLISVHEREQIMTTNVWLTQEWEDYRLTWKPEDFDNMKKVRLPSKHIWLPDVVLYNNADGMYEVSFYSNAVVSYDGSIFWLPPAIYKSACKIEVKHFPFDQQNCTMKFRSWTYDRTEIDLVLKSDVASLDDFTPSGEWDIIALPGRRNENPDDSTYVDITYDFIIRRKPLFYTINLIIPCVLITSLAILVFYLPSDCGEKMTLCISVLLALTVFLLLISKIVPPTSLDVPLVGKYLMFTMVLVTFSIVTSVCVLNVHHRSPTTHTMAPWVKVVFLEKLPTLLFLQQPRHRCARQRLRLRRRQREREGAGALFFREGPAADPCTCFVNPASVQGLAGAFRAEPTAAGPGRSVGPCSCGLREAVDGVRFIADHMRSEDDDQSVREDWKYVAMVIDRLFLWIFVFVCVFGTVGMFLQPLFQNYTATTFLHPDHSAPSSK
# Method: as §1, §2, §3
# Alpha3Beta4 = biological target: T4, Alpha3Beta4 (Rattus norvegicus, UniProt P04757+P12392); test: PDSP primary binding Alpha3Beta4; conditions: primary binding, 10,000 nM; last figure of the line = mean of the 4 before it; read-out: Alpha3Beta4, PDSP raw data, mean
# T4 construct: purchased NIMH Psychoactive Drug Screening Program (PDSP)
# T4 sequence (P04757 26-499): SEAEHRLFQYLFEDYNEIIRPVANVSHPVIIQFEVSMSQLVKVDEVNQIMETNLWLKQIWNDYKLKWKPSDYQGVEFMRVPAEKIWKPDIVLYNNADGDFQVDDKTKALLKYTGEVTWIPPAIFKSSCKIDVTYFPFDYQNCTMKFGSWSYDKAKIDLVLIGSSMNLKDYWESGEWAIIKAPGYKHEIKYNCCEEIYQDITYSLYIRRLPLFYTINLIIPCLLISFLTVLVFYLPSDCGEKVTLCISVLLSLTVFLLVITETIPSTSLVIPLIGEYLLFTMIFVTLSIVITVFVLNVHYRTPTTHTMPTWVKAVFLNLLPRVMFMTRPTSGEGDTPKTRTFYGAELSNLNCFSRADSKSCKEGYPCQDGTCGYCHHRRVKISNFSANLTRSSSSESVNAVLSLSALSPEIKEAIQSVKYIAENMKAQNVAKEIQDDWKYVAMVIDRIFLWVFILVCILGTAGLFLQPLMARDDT
# T4 sequence (P12392 21-495): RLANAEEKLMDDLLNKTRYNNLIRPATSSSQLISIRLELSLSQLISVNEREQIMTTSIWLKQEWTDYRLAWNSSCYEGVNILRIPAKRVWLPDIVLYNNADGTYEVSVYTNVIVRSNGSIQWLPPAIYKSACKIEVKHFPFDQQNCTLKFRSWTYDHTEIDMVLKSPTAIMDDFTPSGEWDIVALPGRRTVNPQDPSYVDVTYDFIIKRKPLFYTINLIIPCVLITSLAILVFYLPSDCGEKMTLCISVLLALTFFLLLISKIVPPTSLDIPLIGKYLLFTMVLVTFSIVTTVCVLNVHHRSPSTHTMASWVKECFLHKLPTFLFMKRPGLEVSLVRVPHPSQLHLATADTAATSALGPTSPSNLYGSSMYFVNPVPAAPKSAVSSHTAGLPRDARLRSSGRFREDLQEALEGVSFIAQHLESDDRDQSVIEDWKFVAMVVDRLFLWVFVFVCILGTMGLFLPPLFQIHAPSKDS
# Method: as §1, §2, §3
# M2 = biological target: T5, M2 (Homo sapiens, UniProt P08172); test: PDSP primary binding M2; conditions: primary binding, 10,000 nM; last figure of the line = mean of the 4 before it; read-out: M2, PDSP raw data, mean
# T5 construct: purchased NIMH Psychoactive Drug Screening Program (PDSP)
# T5 sequence (P08172 1-466): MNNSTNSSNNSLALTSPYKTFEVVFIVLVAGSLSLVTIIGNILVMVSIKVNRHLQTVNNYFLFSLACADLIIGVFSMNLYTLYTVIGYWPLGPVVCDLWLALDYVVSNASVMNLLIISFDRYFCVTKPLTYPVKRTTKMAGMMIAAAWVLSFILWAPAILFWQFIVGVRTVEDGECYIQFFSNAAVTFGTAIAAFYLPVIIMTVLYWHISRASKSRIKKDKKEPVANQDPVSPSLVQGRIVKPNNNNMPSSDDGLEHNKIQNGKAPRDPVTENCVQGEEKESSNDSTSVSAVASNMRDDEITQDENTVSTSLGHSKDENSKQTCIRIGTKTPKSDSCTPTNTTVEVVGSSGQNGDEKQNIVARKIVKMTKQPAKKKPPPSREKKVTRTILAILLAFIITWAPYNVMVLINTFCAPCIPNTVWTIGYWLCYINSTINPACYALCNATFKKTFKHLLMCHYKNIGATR
# Method: as §1, §2, §3
# Kainate (Rat Brain) = test: PDSP primary binding Kainate (Rat Brain); conditions: primary binding, 10,000 nM; last figure of the line = mean of the 4 before it
# Method: as §1, §2, §3
# Beta1 = biological target: T6, Beta1 (Homo sapiens, UniProt P08588); test: PDSP primary binding Beta1; conditions: 1.5 h; primary binding, 10,000 nM; last figure of the line = mean of the 4 before it; read-out: Beta1, PDSP raw data, mean
# T6 construct: purchased NIMH Psychoactive Drug Screening Program (PDSP)
# T6 sequence (P08588 whole entry): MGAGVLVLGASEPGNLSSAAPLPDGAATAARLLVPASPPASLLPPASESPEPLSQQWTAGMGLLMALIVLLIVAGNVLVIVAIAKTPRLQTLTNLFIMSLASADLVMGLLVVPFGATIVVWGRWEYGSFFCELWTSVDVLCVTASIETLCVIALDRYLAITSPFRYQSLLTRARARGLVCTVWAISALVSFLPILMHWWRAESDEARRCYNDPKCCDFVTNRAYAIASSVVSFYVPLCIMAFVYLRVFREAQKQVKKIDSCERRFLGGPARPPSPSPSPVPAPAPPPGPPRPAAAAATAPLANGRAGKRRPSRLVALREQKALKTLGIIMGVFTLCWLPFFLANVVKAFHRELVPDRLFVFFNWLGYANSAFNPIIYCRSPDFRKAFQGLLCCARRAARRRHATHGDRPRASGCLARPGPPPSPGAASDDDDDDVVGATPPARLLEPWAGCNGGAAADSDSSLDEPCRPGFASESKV
# Method: as §1, §2, §3
# BZP rat brain site = test: PDSP binding at BZP rat brain site; conditions: rat brain; for Ki: N = 2, read-out: Binding Affinity BZR Secondary Screening Ki; for Binding Affinity BZR % Inhibition (Primary): at 10,000 nM, N = 5
# Method: The BZR binding affinity of the test compounds was also measured using rat brain BzR. […] The efficacy of imidazodiazepines on the benzodiazepine receptor depends on various factors, including the specific subtype of the receptor they bind to, their chemical structure, and the dose.
# as §2, §3
# NET = biological target: T7, NET (Homo sapiens, UniProt P23975); test: PDSP primary binding NET; conditions: primary binding, 10,000 nM; last figure of the line = mean of the 4 before it; read-out: NET, PDSP raw data, mean
# T7 construct: purchased NIMH Psychoactive Drug Screening Program (PDSP)
# T7 sequence (P23975 whole entry): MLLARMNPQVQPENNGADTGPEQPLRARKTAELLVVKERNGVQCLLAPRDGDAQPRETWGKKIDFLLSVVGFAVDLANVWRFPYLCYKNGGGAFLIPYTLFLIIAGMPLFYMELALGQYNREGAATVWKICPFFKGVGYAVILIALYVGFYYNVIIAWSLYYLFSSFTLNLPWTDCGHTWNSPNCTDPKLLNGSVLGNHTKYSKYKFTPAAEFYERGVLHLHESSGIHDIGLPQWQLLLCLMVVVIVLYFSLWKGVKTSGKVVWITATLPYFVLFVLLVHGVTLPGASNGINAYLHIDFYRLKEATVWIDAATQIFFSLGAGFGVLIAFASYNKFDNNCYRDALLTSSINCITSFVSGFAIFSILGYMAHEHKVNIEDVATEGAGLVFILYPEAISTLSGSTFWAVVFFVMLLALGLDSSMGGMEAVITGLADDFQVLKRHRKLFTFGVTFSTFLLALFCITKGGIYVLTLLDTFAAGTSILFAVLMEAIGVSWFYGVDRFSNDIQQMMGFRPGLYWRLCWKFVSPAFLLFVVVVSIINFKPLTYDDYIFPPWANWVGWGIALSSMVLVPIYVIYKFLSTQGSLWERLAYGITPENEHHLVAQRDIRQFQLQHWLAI
# Method: as §1, §2, §3
# T1 sequence (P35367 whole entry): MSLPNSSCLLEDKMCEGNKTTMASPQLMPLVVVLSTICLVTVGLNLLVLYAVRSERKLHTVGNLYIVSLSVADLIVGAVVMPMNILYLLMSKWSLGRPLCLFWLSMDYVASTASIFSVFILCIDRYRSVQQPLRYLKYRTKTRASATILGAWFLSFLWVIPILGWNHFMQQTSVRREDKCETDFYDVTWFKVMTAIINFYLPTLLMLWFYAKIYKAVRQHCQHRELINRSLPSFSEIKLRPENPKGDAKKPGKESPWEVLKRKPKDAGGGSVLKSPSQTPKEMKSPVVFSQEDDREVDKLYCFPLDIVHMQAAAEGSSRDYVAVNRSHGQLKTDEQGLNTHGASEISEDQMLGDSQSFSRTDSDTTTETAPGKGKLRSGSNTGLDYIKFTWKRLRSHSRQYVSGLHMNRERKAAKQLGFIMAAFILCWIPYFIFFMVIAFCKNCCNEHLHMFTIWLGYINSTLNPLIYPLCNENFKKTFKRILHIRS
SMILES,inhibition at 10 µM (H1) [%],"Alpha7, PDSP raw data, mean (Alpha7) [%]",inhibition at 10 µM (Alpha1D) [%],inhibition at 10 µM (Alpha2Beta2) [%],inhibition at 10 µM (Alpha3Beta4) [%],inhibition at 10 µM (M2) [%],"Kainate (Rat Brain), PDSP raw data, mean (Kainate (Rat Brain)) [%]",inhibition at 10 µM (Beta1) [%],Ki (BZP rat brain site) [nM],Binding Affinity BZR % Inhibition (Primary) (BZP rat brain site) [%],inhibition at 10 µM (NET) [%]
"C#Cc1ccc2c(c1)C(c1ccccn1)=N[C@@H](C)c1c(C(=O)NC)ncn1-2 [Compound 23, (S)-8-Ethynyl-N,4-dimethyl-6-(pyridin-2′-yl)-4H-benzo[f]imidazo[1,5-a][1,4]diazepine-3-carboxamide]",-2.54,-5.28,-6.54,-3.67,1.99,-6.16,37.08,-10.8,1300 ± 394,52.97 ± 6.26,2.62
"C[C@H]1N=C(c2ccccc2F)c2cc(-c3ccccc3)ccc2-n2cnc(C(=O)N(C)C)c21 [Compound 5, (R)-6-(2′-Fluorophenyl)-N,N,4-trimethyl-8-phenyl-4H-benzo[f]imidazo[1,5-a][1,4]diazepine-3-carboxamide]",-10.4,-18.33,3.57,-5.95,-0.77,15.4,3.43,-15.8,123 ± 22.3,94.79 ± 1.08,-6
"CCc1noc(-c2ncn3c2CN=C(c2ccccc2F)c2cc(C4CC4)ccc2-3)n1 [Compound 44, 5-(8-Cyclopropyl-6-(2′-fluorophenyl)-4H-benzo[f]imidazo[1,5-a][1,4]diazepin-3-yl)-3-ethyl-1,2,4-oxadiazole]",16.3,-24.22,1.28,-6.67,7.56,-13.6,42.42,-5.19,194 ± 62.7,96.52 ± 2.57,4.9
"CCc1noc(-c2ncn3c2[C@@H](C)N=C(c2ccccc2F)c2cc(C4CC4)ccc2-3)n1 [Compound 46, (R)-5-(8-Cyclopropyl-6-(2′-fluorophenyl)-4-methyl-4H-benzo[f]imidazo[1,5-a][1,4]diazepin-3-yl)-3-ethyl-1,2,4-oxadiazole]",33.7,4.57,34.9,-2.72,10.4,5.73,38.21,-26.4,3790 ± 632,65.25 ± 5.33,24.3
